Data taken from doi:10.1101/2021.09.30.462449v1 (biorxiv, 2021).

How the values were obtained:
Experiment in all cases: biochemical
Conditions in all cases: read-out: % inhibition mean (Z'Lyte)
[1] = biological target: NEK9 (Homo sapiens, UniProt Q8TD19)
[2] = biological target: PHKG1 (Homo sapiens, UniProt Q16816)
[3] = biological target: CSNK1G2 (CK1 gamma 2) (Homo sapiens, UniProt P78368)
[4] = biological target: EPHB1 (Homo sapiens, UniProt P54762)
[5] = biological target: MAPKAPK2 (Homo sapiens, UniProt P49137)
[6] = biological target: ABL2 (Arg) (Homo sapiens, UniProt P42684)
[7] = biological target: MAPK12 (p38 gamma) (Homo sapiens, UniProt P53778)
Chain of MAPK12 (p38 gamma) (P53778 whole entry): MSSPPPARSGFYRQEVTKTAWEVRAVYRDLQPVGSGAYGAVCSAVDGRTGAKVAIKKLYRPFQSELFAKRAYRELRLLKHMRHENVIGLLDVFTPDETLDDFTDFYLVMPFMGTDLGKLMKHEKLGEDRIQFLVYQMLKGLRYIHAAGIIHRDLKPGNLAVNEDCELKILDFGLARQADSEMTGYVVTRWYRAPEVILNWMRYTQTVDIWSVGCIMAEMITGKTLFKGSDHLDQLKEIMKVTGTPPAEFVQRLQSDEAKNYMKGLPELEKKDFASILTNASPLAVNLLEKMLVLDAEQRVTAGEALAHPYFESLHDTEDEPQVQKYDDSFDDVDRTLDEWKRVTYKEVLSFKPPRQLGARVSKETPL

[8] = biological target: FLT1 (VEGFR1) (Homo sapiens, UniProt P17948)
[9] = biological target: PRKCA (PKC alpha) (Homo sapiens, UniProt P17252)
[10] = biological target: CDK1/cyclin B (Homo sapiens, UniProt P06493)
Chain of CDK1/cyclin B (P14635 whole entry): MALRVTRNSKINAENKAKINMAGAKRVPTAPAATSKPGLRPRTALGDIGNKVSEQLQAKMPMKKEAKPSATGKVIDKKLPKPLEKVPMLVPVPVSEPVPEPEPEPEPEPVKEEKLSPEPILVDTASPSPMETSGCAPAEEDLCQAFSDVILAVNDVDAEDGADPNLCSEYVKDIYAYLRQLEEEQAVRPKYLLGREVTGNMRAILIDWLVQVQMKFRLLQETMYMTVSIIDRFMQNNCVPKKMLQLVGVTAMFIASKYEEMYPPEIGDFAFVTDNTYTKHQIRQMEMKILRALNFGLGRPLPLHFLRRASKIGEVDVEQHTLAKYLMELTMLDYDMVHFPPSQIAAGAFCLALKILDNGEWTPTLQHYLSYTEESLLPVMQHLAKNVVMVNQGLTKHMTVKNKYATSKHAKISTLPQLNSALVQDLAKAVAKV
Chain of CDK1/cyclin B (P06493 whole entry): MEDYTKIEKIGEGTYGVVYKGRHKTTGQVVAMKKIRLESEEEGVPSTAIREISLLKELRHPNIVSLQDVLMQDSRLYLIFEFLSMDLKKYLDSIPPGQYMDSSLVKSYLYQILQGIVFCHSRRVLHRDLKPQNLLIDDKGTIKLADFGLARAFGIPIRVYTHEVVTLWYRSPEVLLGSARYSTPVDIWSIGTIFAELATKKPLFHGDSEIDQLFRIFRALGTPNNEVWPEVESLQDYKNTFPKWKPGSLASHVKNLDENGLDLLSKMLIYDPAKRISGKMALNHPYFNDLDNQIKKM

[11] = biological target: ERBB4 (HER4) (Homo sapiens, UniProt Q15303)
[12] = biological target: RPS6KA2 (RSK3) (Homo sapiens, UniProt Q15349)
[13] = biological target: SRPK1 (Homo sapiens, UniProt Q96SB4)
[14] = biological target: PTK2B (FAK2) (Homo sapiens, UniProt Q14289)
[15] = biological target: GRK4 (Homo sapiens, UniProt P32298)
[16] = biological target: MAP3K19 (YSK4) (Homo sapiens, UniProt Q56UN5)
[17] = biological target: CAMK1G (CAMKI gamma) (Homo sapiens, UniProt Q96NX5)
[18] = biological target: SGK (SGK1) (Homo sapiens, UniProt O00141)
Chain of SGK (SGK1) (O00141 whole entry): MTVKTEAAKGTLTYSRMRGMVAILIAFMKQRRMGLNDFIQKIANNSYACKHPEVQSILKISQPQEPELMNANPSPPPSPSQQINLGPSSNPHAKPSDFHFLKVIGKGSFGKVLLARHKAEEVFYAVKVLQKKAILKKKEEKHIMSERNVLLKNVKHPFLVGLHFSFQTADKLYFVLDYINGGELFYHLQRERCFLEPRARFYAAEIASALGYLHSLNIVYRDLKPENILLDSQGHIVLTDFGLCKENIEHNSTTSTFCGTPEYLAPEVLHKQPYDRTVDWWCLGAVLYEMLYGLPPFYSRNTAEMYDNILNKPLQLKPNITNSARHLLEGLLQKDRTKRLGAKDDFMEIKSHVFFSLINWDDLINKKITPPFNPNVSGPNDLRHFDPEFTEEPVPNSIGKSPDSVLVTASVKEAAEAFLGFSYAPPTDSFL

[19] = biological target: NTRK2 (TRKB) (Homo sapiens, UniProt Q16620)
Chain of NTRK2 (TRKB) (Q16620 whole entry): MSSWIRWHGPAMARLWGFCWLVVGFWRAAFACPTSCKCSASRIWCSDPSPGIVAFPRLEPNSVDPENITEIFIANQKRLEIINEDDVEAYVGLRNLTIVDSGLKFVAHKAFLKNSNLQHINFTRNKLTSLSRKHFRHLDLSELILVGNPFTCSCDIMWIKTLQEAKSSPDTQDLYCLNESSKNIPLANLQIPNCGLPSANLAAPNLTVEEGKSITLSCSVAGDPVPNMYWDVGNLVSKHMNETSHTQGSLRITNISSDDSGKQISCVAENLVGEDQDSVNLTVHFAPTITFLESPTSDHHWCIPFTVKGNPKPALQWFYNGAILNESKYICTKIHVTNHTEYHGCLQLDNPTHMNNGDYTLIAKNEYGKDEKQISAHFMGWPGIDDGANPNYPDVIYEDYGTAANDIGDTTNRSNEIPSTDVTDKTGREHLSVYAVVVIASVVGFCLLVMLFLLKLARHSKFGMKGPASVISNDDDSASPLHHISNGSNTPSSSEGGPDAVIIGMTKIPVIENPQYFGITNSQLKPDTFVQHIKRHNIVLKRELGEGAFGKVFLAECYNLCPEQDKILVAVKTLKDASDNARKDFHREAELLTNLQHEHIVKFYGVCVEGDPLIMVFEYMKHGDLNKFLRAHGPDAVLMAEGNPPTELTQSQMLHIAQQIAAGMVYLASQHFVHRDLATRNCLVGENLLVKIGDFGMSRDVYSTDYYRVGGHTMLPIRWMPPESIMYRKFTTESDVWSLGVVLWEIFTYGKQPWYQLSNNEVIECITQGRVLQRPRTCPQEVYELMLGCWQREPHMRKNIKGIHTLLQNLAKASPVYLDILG

[20] = biological target: PDGFRB (PDGFR beta) (Homo sapiens, UniProt P09619)
[21] = biological target: MKNK1 (MNK1) (Homo sapiens, UniProt Q9BUB5)
[22] = biological target: TBK1 (Homo sapiens, UniProt Q9UHD2)
[23] = biological target: CDK5/p35 (Homo sapiens, UniProt Q00535)
[24] = biological target: PRKCB1 (PKC beta I) (Homo sapiens, UniProt P05771)
[25] = biological target: ABL1 G250E (Homo sapiens, UniProt P00519, G250E)
[26] = biological target: HIPK2 (Homo sapiens, UniProt Q9H2X6)
[27] = biological target: RPS6KA6 (RSK4) (Homo sapiens, UniProt Q9UK32)
[28] = biological target: BTK (Homo sapiens, UniProt Q06187)
[29] = biological target: MINK1 (Homo sapiens, UniProt Q8N4C8)

Chain of NEK9 (Q8TD19 whole entry): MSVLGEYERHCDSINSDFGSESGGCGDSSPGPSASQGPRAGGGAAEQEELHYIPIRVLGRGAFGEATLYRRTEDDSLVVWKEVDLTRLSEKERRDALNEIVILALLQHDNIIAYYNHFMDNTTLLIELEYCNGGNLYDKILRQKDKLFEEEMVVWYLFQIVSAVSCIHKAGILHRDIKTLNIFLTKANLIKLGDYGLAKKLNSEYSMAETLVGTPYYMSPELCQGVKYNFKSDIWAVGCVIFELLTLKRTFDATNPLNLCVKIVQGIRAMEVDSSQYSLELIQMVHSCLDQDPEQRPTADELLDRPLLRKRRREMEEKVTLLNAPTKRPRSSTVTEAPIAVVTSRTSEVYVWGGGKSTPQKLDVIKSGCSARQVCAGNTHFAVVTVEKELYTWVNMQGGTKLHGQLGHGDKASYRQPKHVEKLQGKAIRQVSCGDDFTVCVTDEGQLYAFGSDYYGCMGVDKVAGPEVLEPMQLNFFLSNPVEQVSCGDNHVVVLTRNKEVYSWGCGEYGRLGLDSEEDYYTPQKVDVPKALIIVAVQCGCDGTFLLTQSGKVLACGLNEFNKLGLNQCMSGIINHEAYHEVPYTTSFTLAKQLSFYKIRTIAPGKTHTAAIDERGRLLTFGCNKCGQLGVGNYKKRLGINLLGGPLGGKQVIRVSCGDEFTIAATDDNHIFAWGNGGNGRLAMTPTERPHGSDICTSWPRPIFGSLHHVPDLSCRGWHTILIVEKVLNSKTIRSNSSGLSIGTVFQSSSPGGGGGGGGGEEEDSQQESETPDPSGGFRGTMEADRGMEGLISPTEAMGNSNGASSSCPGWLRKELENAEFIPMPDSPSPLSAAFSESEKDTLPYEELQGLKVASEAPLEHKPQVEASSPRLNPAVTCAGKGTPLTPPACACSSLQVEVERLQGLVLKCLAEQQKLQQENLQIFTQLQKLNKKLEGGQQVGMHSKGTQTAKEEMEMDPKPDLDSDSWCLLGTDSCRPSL
Chain of EPHB1 (P54762 whole entry): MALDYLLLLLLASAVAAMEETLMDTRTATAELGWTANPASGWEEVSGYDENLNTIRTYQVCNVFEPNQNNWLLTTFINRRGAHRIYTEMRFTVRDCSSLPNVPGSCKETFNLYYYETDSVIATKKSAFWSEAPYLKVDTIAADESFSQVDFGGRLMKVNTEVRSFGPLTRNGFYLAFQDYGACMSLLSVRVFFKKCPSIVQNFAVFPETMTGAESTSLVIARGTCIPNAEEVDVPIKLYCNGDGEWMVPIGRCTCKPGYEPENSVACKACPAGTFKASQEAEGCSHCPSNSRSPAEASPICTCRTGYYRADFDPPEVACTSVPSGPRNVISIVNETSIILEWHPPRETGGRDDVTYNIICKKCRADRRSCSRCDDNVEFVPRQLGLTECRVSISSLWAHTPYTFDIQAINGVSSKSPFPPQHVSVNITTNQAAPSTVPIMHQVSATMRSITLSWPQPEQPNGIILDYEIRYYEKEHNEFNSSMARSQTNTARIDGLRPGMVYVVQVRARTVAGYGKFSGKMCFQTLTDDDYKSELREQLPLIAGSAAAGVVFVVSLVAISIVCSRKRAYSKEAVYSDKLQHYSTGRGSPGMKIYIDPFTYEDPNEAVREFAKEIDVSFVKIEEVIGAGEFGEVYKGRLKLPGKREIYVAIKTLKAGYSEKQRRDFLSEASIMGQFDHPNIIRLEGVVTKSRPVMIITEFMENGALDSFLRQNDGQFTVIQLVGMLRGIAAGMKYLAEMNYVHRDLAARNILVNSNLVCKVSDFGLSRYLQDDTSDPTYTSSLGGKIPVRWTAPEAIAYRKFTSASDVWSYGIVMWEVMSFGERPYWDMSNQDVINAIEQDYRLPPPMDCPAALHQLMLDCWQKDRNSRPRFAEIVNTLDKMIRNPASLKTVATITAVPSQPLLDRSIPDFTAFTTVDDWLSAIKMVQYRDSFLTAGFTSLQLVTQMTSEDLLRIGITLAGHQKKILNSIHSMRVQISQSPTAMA
Chain of CSNK1G2 (CK1 gamma 2) (P78368 whole entry): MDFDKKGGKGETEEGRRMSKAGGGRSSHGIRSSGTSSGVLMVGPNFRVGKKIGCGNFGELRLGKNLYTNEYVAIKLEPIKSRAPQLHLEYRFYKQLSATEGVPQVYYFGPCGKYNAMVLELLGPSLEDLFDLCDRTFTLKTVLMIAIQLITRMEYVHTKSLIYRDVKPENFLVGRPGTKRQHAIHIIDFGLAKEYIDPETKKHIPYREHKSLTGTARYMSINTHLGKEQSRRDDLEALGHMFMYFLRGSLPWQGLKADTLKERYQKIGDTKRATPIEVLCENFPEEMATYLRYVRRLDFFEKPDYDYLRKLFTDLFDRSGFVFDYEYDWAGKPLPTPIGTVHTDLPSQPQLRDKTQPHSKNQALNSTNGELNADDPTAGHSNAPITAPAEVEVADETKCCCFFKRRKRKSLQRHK

`COc1ccc2nc3cc(Cl)ccc3c(Nc3cc(CN4CCCC4)c(O)c(CN4CCCC4)c3)c2n1` [Pyronaridine, 4-[(7-Chloro-2-methoxybenzo[b][1,5]naphthyridin-10-yl)amino]-2,6-bis(1-pyrrolidinylmethyl)phenol phosphate (1:4)] was tested, and the inhibition at 1 µM [1] was 0%, the inhibition at 1 µM [2] was -1% and the inhibition at 1 µM [3] was 4%. The inhibition at 1 µM [4] was 2%, the inhibition at 1 µM [5] was 10% and the inhibition at 1 µM [6] was 2%. It also gave an inhibition at 1 µM [7] of 7%, an inhibition at 1 µM [8] of -6% and an inhibition at 1 µM [9] of 13%. It also gave an inhibition at 1 µM [10] of 5%, an inhibition at 1 µM [11] of -2% and an inhibition at 1 µM [12] of 0%. It also gave an inhibition at 1 µM [13] of 1%, an inhibition at 1 µM [14] of -1% and an inhibition at 1 µM [15] of 25%. It also gave an inhibition at 1 µM [16] of 3%, an inhibition at 1 µM [17] of 0% and an inhibition at 1 µM [18] of 4%. The inhibition at 1 µM [19] was 1%, the inhibition at 1 µM [20] was 0% and the inhibition at 1 µM [21] was 4%. For the same compound, the inhibition at 1 µM [22] was 4%, the inhibition at 1 µM [23] was 3% and the inhibition at 1 µM [24] was 2%. The inhibition at 1 µM [25] was 1%, the inhibition at 1 µM [26] was -1% and the inhibition at 1 µM [27] was 4%. The inhibition at 1 µM [28] was 9% and the inhibition at 1 µM [29] was 7%.
